The source made the active and inactive calls. The calls are words filed in the database; no cut-off is given here.
Key:
[1] = species: Rattus norvegicus; experiment: Inhibition of lipid peroxidation in Sprague-Dawley rat heart mitochondria assessed as inhibition of FeSO4-induced oxygen consumption up to 0.3 mM relative to control; assay type: functional; set-up: scale not given: the % may be the effect or the level left
[2] = species: Rattus norvegicus; experiment: Inhibition of lipid peroxidation in Sprague-Dawley rat heart mitochondria assessed as inhibition of FeSO4-induced malondialdehyde formation up to 0.3 mM relative to control; assay type: functional; set-up: scale not given: the % may be the effect or the level left
[3] = Inhibition of lipid peroxidation in Sprague-Dawley rat heart mitochondria assessed as inhibition of FeSO4-induced oxygen consumption; assay type: functional
[4] = Inhibition of lipid peroxidation in Sprague-Dawley rat heart mitochondria assessed as inhibition of FeSO4-induced malondialdehyde formation; assay type: functional
[5] = system: PBMC; experiment: Inhibition of thymidine uptake in phytohemagglutininin-stimulated human PBMC; assay type: functional, cell-based
[6] = system: Radical scavenging activity; experiment: Antioxidant activity assessed as DPPH radical scavenging activity after 90 mins; assay type: functional
[7] = species: Rattus norvegicus; experiment: Antioxidant activity in Sprague-Dawley rat heart mitochondria assessed as inhibition of conjugated diene formation at 1 to 300 uM; assay type: functional

## O=C1c2cccc(O)c2C(=O)c2cccc(O)c21
[1]
  Activity: < 50%
[2]
  Activity: < 50%

## O=C(O[C@@H]1Cc2c(O)cc(O)cc2O[C@H]1c1cc(O)c(O)c(O)c1)c1cc(O)c(O)c(O)c1 [GALLOCATECHIN GALLATE]
[3]
  IC50: 14 µM
[4]
  IC50: 8.6 µM

## Cc1cc(O)c2c(c1)C(=O)c1cccc(O)c1C2=O
[1]
  Activity: < 50%
[2]
  Activity: < 50%

## O=C1c2ccc(O)cc2C(=O)c2ccc(O)cc21
[1]
  Activity: < 50%
[2]
  Activity: < 50%
[5]
  Activity: Active

## O=C1c2ccccc2C(=O)c2ccccc21
[1]
  Activity: < 50%
[2]
  Activity: < 50%

## COc1cc(O)c2c(c1)C(=O)c1cc(C)cc(O)c1C2=O
[1]
  Activity: < 50%
[2]
  Activity: < 50%

## O=C(O)c1ccc2c(c1)C(=O)c1ccccc1C2=O
[1]
  Activity: < 50%
[2]
  Activity: < 50%

## Cc1cc(O)c2c(c1)C(=O)c1cc(O)cc(O)c1C2=O [EMODIN]
[3]
  IC50: 12.5 µM
[4]
  IC50: 16.8 µM
[6]
  Activity: inactive
[7]
  Activity: inactive

## CCc1ccc2c(c1)C(=O)c1ccccc1C2=O
[1]
  Activity: < 50%
[2]
  Activity: < 50%

## Cc1cc(O)c2c(c1)C(=O)c1cc(O)cc(O[C@@H]3O[C@H](CO)[C@@H](O)[C@H](O)[C@H]3O)c1C2=O
[1]
  Activity: < 50%
[2]
  Activity: < 50%

## O=C1OC[C@H]2OC(O)[C@@H]3OC(=O)c4cc(O)c(O)c(O)c4-c4c(cc(O)c(O)c4O)C(=O)O[C@H]3[C@@H]2OC(=O)c2cc(O)c(O)c(O)c2-c2c1cc(O)c(O)c2O (stereo partly drawn) [PEDUNCULAGIN]
[3]
  IC50: 7.8 µM
[4]
  IC50: 12 µM

## O=C(O[C@@H]1Cc2c(O)cc(O)cc2O[C@@H]1c1cc(O)c(O)c(O)c1)c1cc(O)c(O)c(O)c1 [EPIGALOCATECHIN GALLATE]
[3]
  IC50: 12.2 µM
[4]
  IC50: 9.4 µM

## Nc1cccc2c1C(=O)c1ccccc1C2=O
[1]
  Activity: < 50%
[2]
  Activity: < 50%

## Nc1ccc2c(c1)C(=O)c1ccccc1C2=O
[1]
  Activity: < 50%
[2]
  Activity: < 50%

## COc1cc(O[C@@H]2O[C@H](CO)[C@@H](O)[C@H](O)[C@H]2O)c2c(c1)C(=O)c1cc(C)cc(O)c1C2=O
[1]
  Activity: < 50%
[2]
  Activity: < 50%

## Oc1cc(O)c2c(c1)O[C@H](c1ccc(O)c(O)c1)[C@H](O)[C@H]2c1c(O)cc(O)c2c1O[C@H](c1ccc(O)c(O)c1)[C@H](O)C2 [PROCYANIDIN B2]
[3]
  IC50: 11 µM
[4]
  IC50: 9 µM

## O=C1c2ccccc2C(=O)c2c1ccc(O)c2O [ATHRAQUINONES A]
[3]
  IC50: 63.9 µM
[4]
  IC50: 49.5 µM
[6]
  Activity: Active

## Cc1c(C)c2c(c(C)c1O)CC[C@@](C)(CCC[C@H](C)CCC[C@H](C)CCCC(C)C)O2 [ALPHA-TOCOPHEROL]
[3]
  IC50: 102 µM
[4]
  IC50: 94.7 µM
[6]
  Activity: Active

## O=C(O[C@@H]1Cc2c(O)cc(O)cc2O[C@@H]1c1ccc(O)c(O)c1)c1cc(O)c(O)c(O)c1 [EPICATECHIN GALLATE]
[3]
  IC50: 8.4 µM
[4]
  IC50: 5.4 µM
